The values below come from ChEMBL document CHEMBL5291721, “A preclinical secondary pharmacology resource illuminates target-adverse drug reaction associations of marketed drugs” (Nat Commun, 2023).

One may read the AC50 as the concentration giving half of the maximal activity seen.

For experiment [1], the target named is 5-hydroxytryptamine receptor 2B (Homo sapiens, UniProt P41595). In kind it is functional, cell-based.
In experiment [2] the target is T1, Alpha-2A adrenergic receptor (Homo sapiens, UniProt P08913).
T1 sequence (P08913 whole entry): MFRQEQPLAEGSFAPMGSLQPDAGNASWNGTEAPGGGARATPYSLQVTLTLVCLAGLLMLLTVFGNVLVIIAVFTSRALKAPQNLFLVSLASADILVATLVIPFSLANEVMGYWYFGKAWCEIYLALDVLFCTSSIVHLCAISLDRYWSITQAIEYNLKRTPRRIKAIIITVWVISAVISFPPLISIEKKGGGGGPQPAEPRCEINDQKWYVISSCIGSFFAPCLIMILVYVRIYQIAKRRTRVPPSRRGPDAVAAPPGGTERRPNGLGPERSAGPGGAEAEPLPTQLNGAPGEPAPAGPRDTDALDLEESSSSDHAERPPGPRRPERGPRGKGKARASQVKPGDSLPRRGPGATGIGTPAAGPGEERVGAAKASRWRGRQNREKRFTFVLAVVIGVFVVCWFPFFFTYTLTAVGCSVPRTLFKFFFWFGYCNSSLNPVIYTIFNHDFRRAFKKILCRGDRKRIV
In kind it is functional, cell-based.

The target of experiment [3] is T2, Progesterone receptor (Homo sapiens, UniProt P06401).
T2 sequence (P06401 whole entry): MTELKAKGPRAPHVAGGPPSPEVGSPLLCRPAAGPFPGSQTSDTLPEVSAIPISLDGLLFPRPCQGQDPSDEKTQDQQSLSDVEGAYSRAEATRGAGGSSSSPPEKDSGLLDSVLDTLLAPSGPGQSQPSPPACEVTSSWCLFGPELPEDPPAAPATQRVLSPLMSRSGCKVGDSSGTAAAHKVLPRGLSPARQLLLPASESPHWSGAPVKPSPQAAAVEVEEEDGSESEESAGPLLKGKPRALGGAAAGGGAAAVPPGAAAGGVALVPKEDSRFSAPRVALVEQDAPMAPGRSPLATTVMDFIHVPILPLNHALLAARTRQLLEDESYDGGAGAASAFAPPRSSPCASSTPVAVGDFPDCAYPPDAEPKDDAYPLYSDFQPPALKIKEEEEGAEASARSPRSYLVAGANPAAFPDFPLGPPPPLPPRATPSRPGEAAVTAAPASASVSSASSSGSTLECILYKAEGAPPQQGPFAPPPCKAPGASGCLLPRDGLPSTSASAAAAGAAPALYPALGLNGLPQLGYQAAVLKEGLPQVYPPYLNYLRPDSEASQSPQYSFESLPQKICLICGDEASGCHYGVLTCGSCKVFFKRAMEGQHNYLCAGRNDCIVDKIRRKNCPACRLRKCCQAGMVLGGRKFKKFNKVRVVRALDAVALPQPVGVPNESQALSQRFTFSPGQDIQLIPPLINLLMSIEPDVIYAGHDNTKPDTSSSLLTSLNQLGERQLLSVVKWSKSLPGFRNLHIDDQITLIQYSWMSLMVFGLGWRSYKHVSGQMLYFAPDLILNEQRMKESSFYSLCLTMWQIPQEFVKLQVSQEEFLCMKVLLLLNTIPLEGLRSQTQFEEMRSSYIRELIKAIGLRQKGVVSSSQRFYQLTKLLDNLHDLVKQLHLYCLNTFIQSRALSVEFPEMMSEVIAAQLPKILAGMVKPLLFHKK
In kind it is functional.

For experiment [4], the target named is T2, Progesterone receptor. In kind it is functional. The source holds these as a separate data set.
The target in experiment [5] is Growth hormone secretagogue receptor type 1 (Homo sapiens, UniProt Q92847).
In experiment [6] the target is 5-hydroxytryptamine receptor 2A (Homo sapiens, UniProt P28223). Format: functional, cell-based.
Experiment [7] deals with T3, Alpha-1A adrenergic receptor (Homo sapiens, UniProt P35348).
T3 sequence (P35348 whole entry): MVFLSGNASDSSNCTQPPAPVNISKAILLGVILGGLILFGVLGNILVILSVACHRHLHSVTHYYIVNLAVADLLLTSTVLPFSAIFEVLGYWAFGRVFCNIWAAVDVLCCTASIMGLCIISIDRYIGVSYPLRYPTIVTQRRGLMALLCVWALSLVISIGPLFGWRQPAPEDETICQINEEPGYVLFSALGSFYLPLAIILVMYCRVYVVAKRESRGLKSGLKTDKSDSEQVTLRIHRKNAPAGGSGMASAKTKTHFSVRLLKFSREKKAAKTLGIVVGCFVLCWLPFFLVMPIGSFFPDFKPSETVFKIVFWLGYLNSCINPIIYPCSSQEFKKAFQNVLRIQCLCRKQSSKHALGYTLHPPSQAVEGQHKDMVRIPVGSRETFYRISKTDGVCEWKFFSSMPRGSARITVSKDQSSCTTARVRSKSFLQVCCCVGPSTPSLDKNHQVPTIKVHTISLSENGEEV
Also: assay procedure not described here.

Chain of Growth hormone secretagogue receptor type 1 (Q92847 whole entry): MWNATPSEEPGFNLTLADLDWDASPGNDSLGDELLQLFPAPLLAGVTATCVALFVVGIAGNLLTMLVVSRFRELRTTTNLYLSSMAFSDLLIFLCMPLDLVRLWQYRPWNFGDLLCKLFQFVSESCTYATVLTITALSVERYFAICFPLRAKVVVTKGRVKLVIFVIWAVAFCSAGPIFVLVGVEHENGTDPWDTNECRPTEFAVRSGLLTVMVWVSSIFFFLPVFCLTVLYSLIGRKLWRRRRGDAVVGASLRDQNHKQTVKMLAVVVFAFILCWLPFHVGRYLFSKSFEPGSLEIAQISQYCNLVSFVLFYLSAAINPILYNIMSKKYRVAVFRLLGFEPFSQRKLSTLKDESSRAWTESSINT
Chain of 5-hydroxytryptamine receptor 2A (P28223 whole entry): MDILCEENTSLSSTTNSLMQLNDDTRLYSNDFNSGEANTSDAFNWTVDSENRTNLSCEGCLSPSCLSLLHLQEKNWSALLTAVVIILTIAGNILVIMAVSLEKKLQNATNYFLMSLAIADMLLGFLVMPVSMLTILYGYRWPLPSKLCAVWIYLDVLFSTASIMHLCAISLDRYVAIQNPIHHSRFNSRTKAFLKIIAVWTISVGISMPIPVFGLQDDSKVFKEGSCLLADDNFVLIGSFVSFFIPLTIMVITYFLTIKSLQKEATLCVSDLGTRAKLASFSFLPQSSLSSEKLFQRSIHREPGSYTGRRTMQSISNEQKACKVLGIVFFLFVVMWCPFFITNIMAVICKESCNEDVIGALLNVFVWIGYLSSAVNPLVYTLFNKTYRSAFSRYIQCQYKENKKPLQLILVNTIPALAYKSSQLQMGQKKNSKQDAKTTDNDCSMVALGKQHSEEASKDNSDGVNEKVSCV
Chain of 5-hydroxytryptamine receptor 2B (P41595 whole entry): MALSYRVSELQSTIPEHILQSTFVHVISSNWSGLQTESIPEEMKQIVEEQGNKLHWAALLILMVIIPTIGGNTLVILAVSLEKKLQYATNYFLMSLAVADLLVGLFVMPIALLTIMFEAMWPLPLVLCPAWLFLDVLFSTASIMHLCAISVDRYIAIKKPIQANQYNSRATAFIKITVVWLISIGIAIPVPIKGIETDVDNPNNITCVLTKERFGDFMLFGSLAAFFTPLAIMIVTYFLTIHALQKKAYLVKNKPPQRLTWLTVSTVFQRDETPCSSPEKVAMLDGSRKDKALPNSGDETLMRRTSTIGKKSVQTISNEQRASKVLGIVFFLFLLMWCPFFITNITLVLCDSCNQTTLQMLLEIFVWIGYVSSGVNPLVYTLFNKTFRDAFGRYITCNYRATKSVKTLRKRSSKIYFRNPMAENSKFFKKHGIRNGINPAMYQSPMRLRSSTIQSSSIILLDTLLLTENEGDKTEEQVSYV

With `CC(=N)N1CC[C@H](SC2=C(C(=O)O)N3C(=O)[C@H]([C@@H](C)O)[C@H]3C2)C1`, the AC50 in experiment [1], in experiment [2], in experiment [3], in experiment [4], in experiment [5] and in experiment [6] was greater than 300 µM in each case.

Consider `CC(/C=C1\SC(=S)N(CC(=O)O)C1=O)=C\c1ccccc1`, for which the AC50 in experiment [1], in experiment [2], in experiment [3], in experiment [4] and in experiment [5] was greater than 30 µM in each case.

Regarding `CNCC[C@@H](Oc1ccccc1C)c1ccccc1` [ATOMOXETINE], the AC50 in experiment [1], in experiment [3], in experiment [4] and in experiment [5] was greater than 30 µM throughout.

`C=C(C)[C@@H]1CCC(C)=C[C@H]1c1c(O)cc(CCCCC)cc1O` [CANNABIDIOL]: the half-maximal activity concentration (AC50) was greater than 30 µM in experiment [1]; greater than 10 µM in experiment [2]; greater than 10 µM in experiment [3]; greater than 30 µM in experiment [4]; greater than 30 µM in experiment [5]; 4.7 µM in experiment [6].

Regarding `CO/N=C(\C(=O)N[C@@H]1C(=O)N2C(C(=O)O)=C(COC(N)=O)CS[C@H]12)c1ccco1` [CEFUROXIME], the AC50 in experiment [1], in experiment [2], in experiment [5] and in experiment [6] was greater than 30 µM throughout.

Regarding `C#Cc1cccc(Nc2ncnc3cc(OCCOC)c(OCCOC)cc23)c1` [ERLOTINIB], the AC50 in experiment [1], in experiment [2], in experiment [3], in experiment [4] and in experiment [5] was greater than 30 µM in each case.

Take `CC1(C)O[C@@H]2C[C@H]3[C@@H]4C[C@H](F)C5=CC(=O)C=C[C@]5(C)[C@H]4[C@@H](O)C[C@]3(C)[C@]2(C(=O)CO)O1` [FLUNISOLIDE]: the AC50 was greater than 30 µM in experiment [1]; greater than 30 µM in experiment [2]; greater than 3 µM in experiment [3]; 0.64 µM in experiment [4]; greater than 30 µM in experiment [5].

As for `CCC(=O)O[C@@H](O[P@](=O)(CCCCc1ccccc1)CC(=O)N1C[C@H](C2CCCCC2)C[C@H]1C(=O)O)C(C)C` [FOSINOPRIL], the half-maximal activity concentration (AC50) in experiment [1], in experiment [2] and in experiment [6] was greater than 30 µM in each case.

As for `Nc1nc(O)c2ncn(COC(CO)CO)c2n1` [GANCICLOVIR], the AC50 in experiment [1], in experiment [2], in experiment [3], in experiment [4] and in experiment [5] was greater than 30 µM throughout.

As for `C[C@H]1Oc2cc(cnc2N)-c2c(nn(C)c2C#N)CN(C)C(=O)c2ccc(F)cc21` [LORLATINIB], the AC50 in experiment [1], in experiment [2], in experiment [3], in experiment [4], in experiment [5] and in experiment [6] was greater than 30 µM each time.

For the compound `CC(=O)/N=c1/sc(S(N)(=O)=O)nn1C` [METHAZOLAMIDE], the AC50 in experiment [7], in experiment [1], in experiment [2], in experiment [3], in experiment [4] and in experiment [5] was greater than 10 µM each time. Further, the AC50 in experiment [6] was greater than 10 µM.

Take `CC(=O)Oc1ccccc1C(=O)Nc1ncc([N+](=O)[O-])s1` [NITAZOXANIDE]: the AC50 is greater than 30 µM in experiment [1]; greater than 30 µM in experiment [2]; greater than 30 µM in experiment [3]; greater than 30 µM in experiment [4]; 15 µM in experiment [5]; 15 µM in experiment [6].

For `CNCCC=C1c2ccccc2CCc2ccccc21` [NORTRIPTYLINE], the AC50 in experiment [7] is 0.114 µM; in experiment [1], greater than 30 µM; in experiment [3], greater than 30 µM; in experiment [4] it was greater than 30 µM; in experiment [5], greater than 30 µM.

Turning to `CN(C)c1cc(CNCC(C)(C)C)c(O)c2c1C[C@H]1C[C@H]3[C@H](N(C)C)C(O)=C(C(N)=O)C(=O)[C@@]3(O)C(O)=C1C2=O` [OMADACYCLINE], the AC50 in experiment [1], in experiment [2], in experiment [3], in experiment [4], in experiment [5] and in experiment [6] was greater than 30 µM each time.

As to `COc1ccc(Cc2nccc3cc(OC)c(OC)cc23)cc1OC` [PAPAVERINE], the AC50 in experiment [1], in experiment [2], in experiment [3], in experiment [4] and in experiment [5] was greater than 30 µM each time.

As for `CNC(=O)c1cc(Oc2ccc(NC(=O)Nc3ccc(Cl)c(C(F)(F)F)c3)c(F)c2)ccn1` [REGORAFENIB], the AC50 in experiment [3], in experiment [4] and in experiment [6] was greater than 30 µM throughout.

For the compound `CCOc1cc(CC(=O)N[C@@H](CC(C)C)c2ccccc2N2CCCCC2)ccc1C(=O)O` [REPAGLINIDE], the half-maximal activity concentration (AC50) in experiment [1] was greater than 10 µM; in experiment [2], greater than 30 µM; in experiment [3], greater than 30 µM; in experiment [4], greater than 30 µM; in experiment [5] it was greater than 30 µM; in experiment [6], 9.4 µM.

Turning to `NC(=O)c1ncn([C@@H]2O[C@H](CO)[C@@H](O)[C@H]2O)n1` [RIBAVIRIN], the AC50 in experiment [7], in experiment [1], in experiment [2], in experiment [3], in experiment [4] and in experiment [5] was greater than 10 µM each time.

With `O=C(Nc1c(Cl)cncc1Cl)c1ccc(OC(F)F)c(OCC2CC2)c1` [ROFLUMILAST], the AC50 in experiment [1], in experiment [2], in experiment [4], in experiment [5] and in experiment [6] was greater than 30 µM throughout.

As for `CCCN(CCc1cccs1)[C@H]1CCc2c(O)cccc2C1` [ROTIGOTINE], the AC50 in experiment [1] is 0.43 µM; in experiment [2] it was 3.7 µM; in experiment [3], greater than 30 µM; in experiment [4], greater than 30 µM; in experiment [5], 29 µM.

In the case of `CC[C@H]1OC(=O)[C@H](C)[C@@H](O[C@H]2C[C@@](C)(OC)[C@@H](O)[C@H](C)O2)[C@H](C)[C@@H](O[C@@H]2O[C@H](C)C[C@H](N(C)C)[C@H]2O)[C@](C)(O)C[C@@H](C)/C(=N\OCOCCOC)[C@H](C)[C@@H](O)[C@]1(C)O` [ROXITHROMYCIN], the AC50 in experiment [1], in experiment [2], in experiment [3], in experiment [4] and in experiment [5] was greater than 30 µM each time.

With `CN1CCN(CCCN2c3ccccc3Sc3ccc(S(=O)(=O)N(C)C)cc32)CC1` [THIOPROPERAZINE], the AC50 was greater than 30 µM in experiment [1], greater than 30 µM in experiment [2] and 5.8 µM in experiment [6].

As for `Cc1cc(CC(=O)O)n(C)c1C(=O)c1ccc(Cl)cc1` [ZOMEPIRAC], the AC50 in experiment [1], in experiment [2], in experiment [3], in experiment [4], in experiment [5] and in experiment [6] was greater than 30 µM in each case.
